Measured values: patent publication US5118665A, “Anti-oxidative and anti-inflammatory metal:peptide complexes and uses thereof” (ProCyte Corporation, priority 1990, dated 1992)
Read-outs that look alike come from different tables or passages of the source.

Tests used:
Type in all cases: biochemical
superoxide anion = assay: Superoxide dismutase mimetic activity, xanthine oxidase/NBT method; details: for IC50: read-out: CONC. FOR 50% INHIB.; for CONC. FOR 50% INHIB.: Table 4, ratio 2:1 (binary) or 1:1:1 (ternary with chelating agent), ug copper(II) added per reaction
Protocol: The reactions contained the following: 100 uM xanthine, 56 uM NBT (nitro blue tetrazolium) 1 unit of catalase, and 50 mM potassium phosphate buffer, pH 7.8. The reaction was initiated by the addition of xanthine oxidase in sufficient quantity to obtain an increase in absorbance at 560 nm of approximately 0.025/min. in a total sample volume of 1.7 ml. The xanthine oxidase was prepared fresh daily and stored on ice until used. All the components of the reaction are added except the xanthine oxidase and the spectrophotometer was adjusted to zero at 560 nm. The reaction was initiated by the addition of the xanthine oxidase. All reagents were obtained from Sigma Chemical Co.
Measurements of the absorbance at 560 nm were taken at 1-2 minute intervals for at least 16 minutes following addition of xanthine oxidase. A control consisted of reactions containing no metal:peptide complex.
All complexes were tested at a 2:1 molar ratio of peptide to metal. It should be noted that the absolute value found in enzymatic assays for SOD mimetic activity varries depending upon the enzyme lot used in the evaluation. Thus, the inclusion of GHL-Cu permits comparisons from experiment to experiment based on a normalized activity relative to GHL-Cu.
In this example, superoxide dismutase was measured by the xanthine oxidase/NBT method as described in Example 13. Each complex was tested relative to GHL-Cu assayed at the same time. All complexes were tested at a 2:1 molar ratio of peptide to metal.
In this example, superoxide dismutase was measured by the xanthine oxidase/NBT method as described in Example 13. Each compound was tested relative to GHL-Cu assayed at the same time. All complexes were tested at a 2:1 molar ratio of peptide to metal.
In this example, superoxide dismutase was measured by the xanthine oxidase/NBT method as described in Example 13. Each compound was tested relative to GHL-Cu or glycyl-L-histidyl-L-lysyl-L-valyl-L-phenylalanyl-valine:copper(II) ("GHLVFV-Cu") assayed at the same time. In this example, the amount of complex for 50% inhibition is expressed as ug copper(II) added per reaction necessary to achieve 50% inhibition of the control reaction.
In this example, superoxide dismutase was measured by the xanthine oxidase/NBT method as described in Example 13. Each compound was tested relative to GHL-Cu assayed at the same time.

ferritin = assay: Inhibition of ferritin iron release (bathophenanthroline disulfonate, A535); details: 10 um complex, peptide:metal 1:1; for RATE INC. A535 nm min: 200 uM ferritin, no addition = 0.0060; for PERCENT INHIBITION: versus reaction with no additions
Protocol: (§1) Iron release from ferritin was measured by incubating ferritin with 10 um of a metal:peptide complexes of the present invention and determining the amount of iron released. Reaction mixtures contained 0.33 mM xanthine, 25 mU/ml xanthine oxidase, and 90 U/ml catalase as described in Example 13. In addition, 200 uM ferritin was added as a source of iron and 150 uM bathophenanthroline disulfonate to chelate and released iron. The release of iron was measured as an increase in the absorption of 535 nm due to the ironbathophenanthroline complex. The data is presented in Table 6 as this absorption rate and as a percent inhibition of a reaction with no additions. All the metal:peptide complexes are at a molar ratio of peptide to metal of 1:1.

[1] = tested on: liposomes prepared from rat liver lipids; assay: Inhibition of ferritin and superoxide anion dependent lipid peroxidation (MDA formation); details: peptide:metal 1:1; for RATE nmole MDA/min/ml: incubations as Example 18, no addition = 0.220 (A), 0.150 (B); for PERCENT INHIBITION: versus reaction with no additions
Protocol: as §1
Lipid peroxidation was measured by determining the oxidation of lipids in liposomes prepared from rat liver lipids. Incubations were as described in Example 18 except that rat liver lipid […] were included. The oxidation was followed by determining the amount of malondialdehyde ("MDA") formed during the reaction. The data is presented in Table 7 as this absorption rate and as a percent inhibition of a reaction with no additions. All the metal:peptide complexes are at a molar ratio of peptide to metal of 1:1.

[2] = Table 3, ratio 2:1, copper(II) versus manganese(II), experiments A, B
[3] = Table 3, ratio 2:1, reference of the same experiment = 100
[4] = Table 1, GHL:Cu of the same experiment = 100, peptide:metal 2:1
[5] = Table 1, peptide:metal 2:1, pH 7.8, experiments A-E, each with its own GHL:Cu control
[6] = Table 5, GHL:Cu of the same experiment = 100, ratio 2:1
[7] = Table 5, ratio 2:1, albumin binding moieties, experiments A, B
[8] = Table 4 experiment A, GHL:Cu 2:1 = 100
[9] = Table 2, GHL:Cu of the same experiment = 100, peptide:metal 2:1
[10] = Table 2, peptide:metal 2:1, experiments A-G, each with its own GHL:Cu control
[11] = Table 4 experiment B, GHLVFV:Cu 2:1 = 100

“glycylL-histidyl-L-lysine noctyl ester:manganese(II) [GHL-Octyl:Mn]” was tested, and the IC50 (superoxide anion; [2]) was 2 µM and the “RELATIVE to GHL-Cu” value (superoxide anion; [3]) was 611.
“glycyl-L-histidyl-L-lysine n-octyl ester:copper(II) [GHL-Octyl Ester:Cu]” was tested, and the “RELATIVE to GHL-Cu” value (superoxide anion; [4]) was 810, the IC50 (superoxide anion; [5]) was 7 µM and the IC50 (superoxide anion; [2]) was 11 µM. For the same substance, the “RELATIVE to GHL-Cu” value (superoxide anion; [3]) was 100, the “RATE INC. A535 nm min” value (ferritin) was 0.0012 A535 nm min and the “PERCENT INHIBITION” value (ferritin) was 80%. For the same substance, the “RATE nmole MDA/min/ml” value [1] was 0.060 nmole MDA/min/ml and the “PERCENT INHIBITION” value [1] was 73%.
In the case of “glycylL-histidyl-L-lysyl-L-tryptophan:copper(II) [GHLW:Cu]”, the “RELATIVE to GHL-Cu” value (superoxide anion; [6]) is reported as 4700 and the IC50 (superoxide anion; [7]) is reported as 1 µM.
With “glycylL-histidyl-L-lysine:copper(II):histidine [GHL:Cu:H]” the “CONC. FOR 50% INHIB.” value (superoxide anion) was 0.2 ug copper(II) per reaction and the “RELATIVE to GHL-Cu” value (superoxide anion; [8]) was 1600.
With “lysylL-histidyl-caprolactam:copper(II) [GHCaprolactam:Cu]” the “RELATIVE to GHL-Cu” value (superoxide anion; [9]) was 4500 and the IC50 (superoxide anion; [10]) was 0.8 µM.
With “alanylL-histidyl-L-lysine:manganese(II) [AHL:Mn]” the IC50 (superoxide anion; [2]) was 6 µM and the “RELATIVE to GHL-Cu” value (superoxide anion; [3]) was 667.
For “glycylL-histidyl-L-lysine npalmityl ester:copper(II) [GHL-Palmityl Ester:Cu]”, the “RELATIVE to GHL-Cu” value (superoxide anion; [4]) was 231 and the IC50 (superoxide anion; [5]) was 24 µM.
“lysylL-histidyl-glycyl-L-valyl-L-phenylalanyl-L-valine:copper(II) [LHGVFV:Cu]” was tested, and the “RELATIVE to GHL-Cu” value (superoxide anion; [4]) was 46 and the IC50 (superoxide anion; [5]) was 13 µM.
For “glycylL-(3-benzyl)-histidyl-L-lysine:copper(II) [G(3-Benzyl)HL:Cu]”, the “RELATIVE to GHL-Cu” value (superoxide anion; [9]) was 145 and the IC50 (superoxide anion; [10]) was 33 µM.
For “glycylL-histidyl-L-lysine:copper(II):imidazole [GHL:Cu:Im]”, the “CONC. FOR 50% INHIB.” value (superoxide anion) was 1.3 ug copper(II) per reaction and the “RELATIVE to GHL-Cu” value (superoxide anion; [8]) was 246.
“alanylL-histidyl-L-lysine:copper(II) [AHL:Cu]” was tested, and the “RELATIVE to GHL-Cu” value (superoxide anion; [9]) was 563 and the IC50 (superoxide anion; [10]) was 6 µM.
“glycylL-histidyl-L-lysyl-L-valyl-L-phenylalanyl-L-valine:copper(II) [GHLVFV:Cu]” was tested, and the “RELATIVE to GHL-Cu” value (superoxide anion; [4]) was 229, the IC50 (superoxide anion; [5]) was 23 µM and the “CONC. FOR 50% INHIB.” value (superoxide anion) was 2.8 ug copper(II) per reaction. For the same substance, the “RELATIVE to GHL-Cu” value (superoxide anion; [11]) was 100, the “RATE INC. A535 nm min” value (ferritin) was 0.0011 A535 nm min and the “PERCENT INHIBITION” value (ferritin) was 82%. The “RATE nmole MDA/min/ml” value [1] was 0.140 nmole MDA/min/ml and the “PERCENT INHIBITION” value [1] was 36%.
With “glycylL-lysyl-L-histidine:manganese(II) [GLH:Mn]” the IC50 (superoxide anion; [2]) was 6 µM and the “RELATIVE to GHL-Cu” value (superoxide anion; [3]) was 2000.
For “glycylL-lysyl-L-histidine:copper(II) [GLH:Cu]”, the “RELATIVE to GHL-Cu” value (superoxide anion; [9]) was 75 and the IC50 (superoxide anion; [10]) was 20 µM.
“Lhistidyl-glycyl-L-lysine:copper(II) [HGL:Cu]” was tested, and the “RELATIVE to GHL-Cu” value (superoxide anion; [9]) was 22300, the IC50 (superoxide anion; [10]) was 0.3 µM and the “RATE INC. A535 nm min” value (ferritin) was 0.0008 A535 nm min. The “PERCENT INHIBITION” value (ferritin) was 87%, the “RATE nmole MDA/min/ml” value [1] was 0.020 nmole MDA/min/ml and the “PERCENT INHIBITION” value [1] was 87%.
For “glycylL-(3-methyl)-histidyl-L-lysine:copper(II) [G(3-Methyl)HL:Cu]”, the “RELATIVE to GHL-Cu” value (superoxide anion; [9]) was 616, the IC50 (superoxide anion; [10]) was 8 µM and the “RATE INC. A535 nm min” value (ferritin) was 0.0010 A535 nm min. The “PERCENT INHIBITION” value (ferritin) was 83%, the “RATE nmole MDA/min/ml” value [1] was 0.104 nmole MDA/min/ml and the “PERCENT INHIBITION” value [1] was 31%.
“glycylL-histidyl-cadaverine:copper(II) [GHCadaverine:Cu]” was tested, and the “RELATIVE to GHL-Cu” value (superoxide anion; [9]) was 118 and the IC50 (superoxide anion; [10]) was 17 µM.
In the case of “glycylL-histidyl-L-lysyl-L-valyl-L-phenylalanyl-L-valine:copper(II):imidaole [GHLVFV:Cu:Im]”, the “CONC. FOR 50% INHIB.” value (superoxide anion) is reported as 0.3 ug copper(II) per reaction and the “RELATIVE to GHL-Cu” value (superoxide anion; [11]) is reported as 930.
In the case of “glycylL-histidyl-L-lysine noctyl amide:copper(II) [GHL-Octyl Amide:Cu]”, the “RELATIVE to GHL-Cu” value (superoxide anion; [4]) is reported as 182 and the IC50 (superoxide anion; [5]) is reported as 17 µM.
In the case of “glycylL-(3-methyl)-histidyl-L-lysyl-glycyl-L-tryptophan:copper(II) [G(3-Methyl)HLGW:Cu]”, the “RELATIVE to GHL-Cu” value (superoxide anion; [6]) is reported as 521 and the IC50 (superoxide anion; [7]) is reported as 11 µM.
“glycylL-histidyl-L-lysyl-L-valyl-L-phenylalanyl-L-valine:copper(II):histiine [GHLVFV:Cu:H]” was tested, and the “CONC. FOR 50% INHIB.” value (superoxide anion) was 0.2 ug copper(II) per reaction and the “RELATIVE to GHL-Cu” value (superoxide anion; [11]) was 1400.
“lysylL-histidyl-L-glycine amide:copper(II) [LHG-Amide:Cu]” was tested, and the “RELATIVE to GHL-Cu” value (superoxide anion; [9]) was 21 and the IC50 (superoxide anion; [10]) was 70 µM.
In the case of “glycyl-L-histidyl-L-lysine:copper(II) [GHL:Cu, reference compound]”, the “RELATIVE to GHL-Cu” value (superoxide anion; [4]) is reported as 100, the “RELATIVE to GHL-Cu” value (superoxide anion; [9]) is reported as 100 and the “RELATIVE to GHL-Cu” value (superoxide anion; [3]) is reported as 100. For the same substance, the “CONC. FOR 50% INHIB.” value (superoxide anion) was 3.2 ug copper(II) per reaction, the “RELATIVE to GHL-Cu” value (superoxide anion; [8]) was 100 and the “RELATIVE to GHL-Cu” value (superoxide anion; [6]) was 100. The “RATE INC. A535 nm min” value (ferritin) was 0.0016 A535 nm min, the “PERCENT INHIBITION” value (ferritin) was 73% and the “RATE nmole MDA/min/ml” value [1] was 0.084 nmole MDA/min/ml. For the same substance, the “PERCENT INHIBITION” value [1] was 62%.
With “lysylL-histidyl-L-glycine noctyl ester:copper(II) [LHG-Octyl Ester:Cu]” the “RELATIVE to GHL-Cu” value (superoxide anion; [4]) was 60 and the IC50 (superoxide anion; [5]) was 10 µM.
With “Lhistidyl-glycyl-L-lysine:manganese(II) [HGL:Mn]” the IC50 (superoxide anion; [2]) was 2 µM and the “RELATIVE to GHL-Cu” value (superoxide anion; [3]) was 2000.
In the case of “glycylL-histidyl-L-lysyl-L-alanyl-L-phenylalanyl-L-alanine:copper(II) [GHLAFA:Cu]”, the “RELATIVE to GHL-Cu” value (superoxide anion; [4]) is reported as 561 and the IC50 (superoxide anion; [5]) is reported as 10 µM.
